Experimental data: US9695155B2, “Herbicidal substituted pyrimidinyloxy benzene compounds” (E. I. DU PONT DE NEMOURS AND COMPANY, priority 2013, dated 2017)

How the values were obtained:
[1] = system: field violet; experiment: Test D preemergence; assay type: in vivo, Viola arvensis; conditions: Viola arvensis, pre-emergence
How it was run: (§1)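 Solvent/surfactant formulations are sprayed pre (silt loam) or post (1–4 leaf plants, 2–18 cm). Plants stay 7–21 days in controlled conditions before a visual 0–100 score is given.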

[2] = system: deadnettle; experiment: Test D preemergence; assay type: in vivo, Lamium amplexicaule; conditions: Lamium amplexicaule, pre-emergence
How it was run: as §1

[3] = system: kochia; experiment: Test D postemergence; assay type: in vivo, Kochia scoparia; conditions: Bassia scoparia, post-emergence
How it was run: as §1

[4] = system: oilseed rape; experiment: Test D postemergence; assay type: in vivo, Brassica napus; conditions: Brassica napus, post-emergence
How it was run: as §1

[5] = system: windgrass; experiment: Test D preemergence; assay type: in vivo, Apera spica-venti; conditions: Apera spica-venti, pre-emergence
How it was run: as §1

[6] = system: Italian ryegrass; experiment: Test D postemergence; assay type: in vivo, Lolium multiflorum; conditions: Lolium multiflorum, post-emergence
How it was run: as §1

[7] = system: kochia; experiment: Test D preemergence; assay type: in vivo, Kochia scoparia; conditions: Bassia scoparia, pre-emergence
How it was run: as §1

[8] = system: field poppy; experiment: Test D preemergence; assay type: in vivo, Papaver rhoeas; conditions: Papaver rhoeas, pre-emergence, scale 0-100, read-out: Plant response rating, Field Poppy
How it was run: as §1

[9] = system: wild mustard; experiment: Test D postemergence; assay type: in vivo, Sinapis arvensis; conditions: Brassica, post-emergence
How it was run: as §1

[10] = system: chickweed; experiment: Test D postemergence; assay type: in vivo, Stellaria media; conditions: Stellaria media, post-emergence
How it was run: as §1

FC(F)(F)c1cnn(-c2ccccc2Oc2ncc(Br)cn2)c1 [Compound 18, 5-bromo-2-[2-[4-(trifluoromethyl)-1H-pyrazol-1-yl]phenoxy]pyrimidine]
pest or weed control at 16 g/ha ([1]; 16 g ai/ha, scale 0 (no effect) to 100 (complete control), read-out: Plant response rating, Field Violet): 65%
pest or weed control at 31 g/ha ([1]; 31 g ai/ha, scale 0-100, read-out: Plant response rating, Field Violet): 70%
pest or weed control at 62 g/ha ([1]; 62 g ai/ha, scale 0-100, read-out: Plant response rating, Field Violet): 85%
pest or weed control at 125 g/ha ([1]; 125 g ai/ha, scale 0-100, read-out: Plant response rating, Field Violet): 85%
pest or weed control at 250 g/ha ([1]; 250 g ai/ha, scale 0-100, read-out: Plant response rating, Field Violet): 90%
pest or weed control at 16 g/ha ([2]; 16 g ai/ha, scale 0 (no effect) to 100 (complete control), read-out: Plant response rating, Deadnettle): 10%
pest or weed control at 31 g/ha ([2]; 31 g ai/ha, scale 0-100, read-out: Plant response rating, Deadnettle): 5%
pest or weed control at 62 g/ha ([2]; 62 g ai/ha, scale 0-100, read-out: Plant response rating, Deadnettle): 55%
pest or weed control at 125 g/ha ([2]; 125 g ai/ha, scale 0-100, read-out: Plant response rating, Deadnettle): 70%
pest or weed control at 250 g/ha ([2]; 250 g ai/ha, scale 0-100, read-out: Plant response rating, Deadnettle): 100%
pest or weed control at 16 g/ha ([3]; 16 g ai/ha, scale 0-100, read-out: Plant response rating, Kochia): 35%
pest or weed control at 31 g/ha ([3]; 31 g ai/ha, scale 0 to 100 (0 no effect, 100 complete control), read-out: Plant response rating, Kochia): 85%
pest or weed control at 62 g/ha ([3]; 62 g ai/ha, scale 0 to 100 (0 no effect, 100 complete control), read-out: Plant response rating, Kochia): 90%
pest or weed control at 125 g/ha ([3]; 125 g ai/ha, scale 0 to 100 (0 no effect, 100 complete control), read-out: Plant response rating, Kochia): 100%
pest or weed control at 250 g/ha ([3]; 250 g ai/ha, scale 0 to 100 (0 no effect, 100 complete control), read-out: Plant response rating, Kochia): 100%
plant injury at 16 g/ha ([4]; 16 g ai/ha, scale 0-100, read-out: Plant response rating, Oilseed Rape): 35%
plant injury at 31 g/ha ([4]; 31 g ai/ha, scale 0 to 100 (0 no effect, 100 complete control), read-out: Plant response rating, Oilseed Rape): 70%
plant injury at 62 g/ha ([4]; 62 g ai/ha, scale 0 to 100 (0 no effect, 100 complete control), read-out: Plant response rating, Oilseed Rape): 100%
plant injury at 125 g/ha ([4]; 125 g ai/ha, scale 0 to 100 (0 no effect, 100 complete control), read-out: Plant response rating, Oilseed Rape): 100%
plant injury at 250 g/ha ([4]; 250 g ai/ha, scale 0 to 100 (0 no effect, 100 complete control), read-out: Plant response rating, Oilseed Rape): 100%
pest or weed control at 16 g/ha ([5]; 16 g ai/ha, scale 0 (no effect) to 100 (complete control), read-out: Plant response rating, Windgrass): 5%
pest or weed control at 31 g/ha ([5]; 31 g ai/ha, scale 0 (no effect) to 100 (complete control), read-out: Plant response rating, Windgrass): 20%
pest or weed control at 62 g/ha ([5]; 62 g ai/ha, scale 0-100, read-out: Plant response rating, Windgrass): 75%
pest or weed control at 125 g/ha ([5]; 125 g ai/ha, scale 0-100, read-out: Plant response rating, Windgrass): 100%
pest or weed control at 250 g/ha ([5]; 250 g ai/ha, scale 0-100, read-out: Plant response rating, Windgrass): 100%
pest or weed control at 16 g/ha ([6]; 16 g ai/ha, scale 0-100, read-out: Plant response rating, Ryegrass, Italian): 5%
pest or weed control at 31 g/ha ([6]; 31 g ai/ha, scale 0 to 100 (0 no effect, 100 complete control), read-out: Plant response rating, Ryegrass, Italian): 5%
pest or weed control at 62 g/ha ([6]; 62 g ai/ha, scale 0 to 100 (0 no effect, 100 complete control), read-out: Plant response rating, Ryegrass, Italian): 5%
pest or weed control at 125 g/ha ([6]; 125 g ai/ha, scale 0 to 100 (0 no effect, 100 complete control), read-out: Plant response rating, Ryegrass, Italian): 10%
pest or weed control at 250 g/ha ([6]; 250 g ai/ha, scale 0 to 100 (0 no effect, 100 complete control), read-out: Plant response rating, Ryegrass, Italian): 15%
pest or weed control at 16 g/ha ([7]; 16 g ai/ha, scale 0 (no effect) to 100 (complete control), read-out: Plant response rating, Kochia): 15%
pest or weed control at 31 g/ha ([7]; 31 g ai/ha, scale 0-100, read-out: Plant response rating, Kochia): 90%
pest or weed control at 62 g/ha ([7]; 62 g ai/ha, scale 0-100, read-out: Plant response rating, Kochia): 75%
pest or weed control at 125 g/ha ([7]; 125 g ai/ha, scale 0-100, read-out: Plant response rating, Kochia): 100%
pest or weed control at 250 g/ha ([7]; 250 g ai/ha, scale 0-100, read-out: Plant response rating, Kochia): 100%
pest or weed control at 31 g/ha ([8]; 31 g ai/ha): 70%
pest or weed control at 62 g/ha ([8]; 62 g ai/ha): 85%
pest or weed control at 125 g/ha ([8]; 125 g ai/ha): 95%
pest or weed control at 250 g/ha ([8]; 250 g ai/ha): 100%
pest or weed control at 16 g/ha ([9]; 16 g ai/ha, scale 0-100, read-out: Plant response rating, Mustard, Wild): 60%
pest or weed control at 31 g/ha ([9]; 31 g ai/ha, scale 0 to 100 (0 no effect, 100 complete control), read-out: Plant response rating, Mustard, Wild): 90%
pest or weed control at 62 g/ha ([9]; 62 g ai/ha, scale 0 to 100 (0 no effect, 100 complete control), read-out: Plant response rating, Mustard, Wild): 70%
pest or weed control at 125 g/ha ([9]; 125 g ai/ha, scale 0 to 100 (0 no effect, 100 complete control), read-out: Plant response rating, Mustard, Wild): 80%
pest or weed control at 250 g/ha ([9]; 250 g ai/ha, scale 0 to 100 (0 no effect, 100 complete control), read-out: Plant response rating, Mustard, Wild): 100%
pest or weed control at 16 g/ha ([10]; 16 g ai/ha, scale 0-100, read-out: Plant response rating, Chickweed): 15%
pest or weed control at 31 g/ha ([10]; 31 g ai/ha, scale 0 to 100 (0 no effect, 100 complete control), read-out: Plant response rating, Chickweed): 40%
pest or weed control at 62 g/ha ([10]; 62 g ai/ha, scale 0 to 100 (0 no effect, 100 complete control), read-out: Plant response rating, Chickweed): 45%
pest or weed control at 125 g/ha ([10]; 125 g ai/ha, scale 0 to 100 (0 no effect, 100 complete control), read-out: Plant response rating, Chickweed): 60%
pest or weed control at 250 g/ha ([10]; 250 g ai/ha, scale 0 to 100 (0 no effect, 100 complete control), read-out: Plant response rating, Chickweed): 95%
